Experimental data reported in US9540391B2, “Isomannide derivatives as inhibitors of soluble epoxide hydrolase” (SANOFI, priority 2013, dated 2017).
Counter-ions that a name gives are not always drawn.

target: T1, recombinant sEH (Homo sapiens, UniProt P34913); test: biochemical screening assay for inhibition of soluble epoxide hydrolase (fluorometric, Phome substrate)
T1 construct: made in house; host or cells: Sf9 insect cells
T1 sequence (P34913 1-555): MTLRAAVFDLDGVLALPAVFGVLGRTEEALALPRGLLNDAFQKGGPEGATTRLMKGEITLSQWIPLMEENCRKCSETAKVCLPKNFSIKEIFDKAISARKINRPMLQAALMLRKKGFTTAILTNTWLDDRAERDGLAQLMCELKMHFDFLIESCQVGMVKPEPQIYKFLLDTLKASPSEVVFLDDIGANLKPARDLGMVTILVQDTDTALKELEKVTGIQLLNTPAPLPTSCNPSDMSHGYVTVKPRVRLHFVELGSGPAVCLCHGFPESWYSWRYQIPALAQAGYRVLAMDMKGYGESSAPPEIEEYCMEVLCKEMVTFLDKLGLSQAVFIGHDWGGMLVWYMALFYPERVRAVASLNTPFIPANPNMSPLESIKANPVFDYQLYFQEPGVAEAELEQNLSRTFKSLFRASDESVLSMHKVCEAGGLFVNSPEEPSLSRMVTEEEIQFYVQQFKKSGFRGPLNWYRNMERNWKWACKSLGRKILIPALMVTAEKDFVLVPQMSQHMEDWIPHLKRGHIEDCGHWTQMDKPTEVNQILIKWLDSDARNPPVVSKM
Method: The ability of the compounds of the formula I to inhibit soluble epoxide hydrolase can be determined as follows:
Compounds were tested in a biochemical screening assay using recombinant sEH purified from Sf9 insect cells and an artificial substrate, (3-phenyl-oxiranyl)-acetic acid cyano-(6-methoxy-naphtalen-2-yl)-methyl ester, Phome. The biochemical assay was performed in analogy to a fluorometric method described in the literature (P. D. Jones et al., Anal. Biochem. 2005, 343, 66-75). The assay principle bases on the sEH-catalyzed hydrolysis of an artificial α-cyano-ester substrate. 0-deacetylation liberates a cyanohydrin intermediate that rapidly decomposes to the highly fluorescent 6-methoxy-2-naphtaldehyde. To discriminate sample autofluorescence, the assay was carried out as a kinetic measurement with two time points. The first measurement is performed immediately before addition of the substrate and the second measurement is done after completion of the assay. The assay format is either in 96- or in 384-well format. Details of the assay using a 96-well plate format are described below. 40 μL recombinant sEH enzyme and 5 μL test compound are pre-incubated for 15 minutes at 30° C. Following pre-incubation, the reaction is started by addition of 5 μL Phome. The assay mixture containing 2 nM final sEH concentration, test compound ranging in a concentration from 0.0001-10 μM and 5 μM Phome is incubated for 60 minutes at 30° C.
Fluorescence can be measured with any suitable detector for instance a TECAN Safire or Tecan Ultra at […]. % inhibition of recombinant sEH activity is used for calculation of corresponding IC50 values as illustrated and described in the examples.
The NCBI gene bank reference sequence with the accession number NM_001979 for EPHX2/sEH was applied for recombinant protein production:
The following commercially available materials have been used: • Incubation reagent: 25 mM Hepes (Sigma-Aldrich, Cat. No H-3375), 0.01% bovine albumin (Sigma-Aldrich Cat. No PA9205) • Substrate: 3-Phenyl-oxiranyl)-acetic acid cyano-(6-methoxy-naphtalen-2-yl)-methyl ester, Phome (Biozol Cat. No 10003134) • Microtiter plates: 96-well plates (Greiner Cat. No 655180; Costar Cat. No 3915)

Row | IC50 | Structure (SMILES)
1 | 21 nM | Cc1cc(C)cc(NC(=O)NC2COC3C(C#Cc4ccccc4)COC23)c1 [Example 285, 1-(3,5-Dimethyl-phenyl)-3-[(3S,3aR,6R)-6-((S)-phenylethynyl)-hexahydro-furo[3,2-b]furan-3-yl]-urea]
2 | 47 nM | O=C(NC1CCCCC1)N[C@H]1CO[C@H]2[C@@H]1OC[C@@H]2Oc1ccc(C(F)(F)F)nc1 [Example 42, 1-Cyclohexyl-3-[(3S,3aR,6S,6aS)-6-(6-trifluoromethyl-pyridin-3-yloxy)-hexahydro-furo[3,2-b]furan-3-yl]-urea]
3 | 1 nM | O=C(NC1CCCCC1)N[C@H]1CO[C@H]2[C@@H]1OC[C@@H]2Oc1ccc(Oc2ccccn2)cc1 [Example 109, 1-Cyclohexyl-3-{(3S,3aR,6S,6aS)-6-[4-(pyridin-2-yloxy)-phenoxy]-hexa-hydro-furo[3,2-b]furan-3-yl}-urea]
4 | 3840 nM | Cc1ncccc1O[C@H]1CO[C@H]2[C@@H]1OC[C@@H]2NC(=O)NCCN1CCCC1=O [Example 236, 1-[(3S,3aR,6S,6aS)-6-(2-Methyl-pyridin-3-yloxy)-hexahydro-furo[3,2-b]furan-3-yl]-3-[2-(2-oxo-pyrrolidin-1-yl)-ethyl]-urea]
5 | 792 nM | Cc1ncccc1O[C@H]1CO[C@H]2[C@@H]1OC[C@@H]2NC(=O)NCC1CC(=O)N(C(C)C)C1 (stereo partly drawn) [Example 253, 1-(1-Isopropyl-5-oxo-pyrrolidin-3-ylmethyl)-3-[(3S,3aR,6S,6aS)-6-(2-methyl-pyridin-3-yloxy)-hexahydro-furo[3,2-b]furan-3-yl]-urea]
6 | 506 nM | Cc1ncccc1O[C@H]1CO[C@H]2[C@@H]1OC[C@@H]2NC(=O)NC1(C#N)CCCCC1 [Example 220, 1-(1-Cyano-cyclohexyl)-3-[(3S,3aR,6S,6aS)-6-(2-methyl-pyridin-3-yloxy)-hexahydro-furo[3,2-b]furan-3-yl]-urea]
7 | 2 nM | O=C(NC1CCCCC1)N[C@H]1CO[C@H]2[C@@H]1OC[C@@H]2Oc1cccc(N2CCCC2=O)c1 [Example 107, 1-Cyclohexyl-3-{(3S,3aR,6S,6aS)-6-[3-(2-oxo-pyrrolidin-1-yl)-phenoxy]-hexahydro-furo[3,2-b]furan-3-yl}-urea]
8 | 146 nM | O=C(Nc1cccc(F)c1)N[C@H]1CO[C@H]2[C@@H]1OC[C@@H]2C#Cc1ccsc1 [Example 311, 1-(3-Fluoro-phenyl)-3-((3S,3aR,6S,6aR)-6-thiophen-3-ylethynyl-hexahydro-furo[3,2-b]furan-3-yl)-urea]
9 | 144 nM | COCC1(NC(=O)N[C@H]2CO[C@H]3[C@@H]2OC[C@@H]3Oc2cccnc2C)CCCC1 [Example 210, 1-(1-Methoxymethyl-cyclopentyl)-3-[(3S,3aR,6S,6aS)-6-(2-methyl-pyridin-3-yloxy)-hexahydro-furo[3,2-b]furan-3-yl]-urea]
10 | 3 nM | O=C(NC1CCCCC1)N[C@H]1CO[C@H]2[C@@H]1OC[C@@H]2/C=C\c1ccc2c(c1)OCO2 [Example 317, 1-[(3S,3aR,6S,6aR)-6-((Z)-2-Benzo[1,3]dioxol-5-yl-vinyl)-hexahydro-furo[3,2-b]furan-3-yl]-3-cyclohexyl-urea]
11 | 50 nM | O=C(NC1CCCCC1)N[C@H]1CO[C@H]2[C@@H]1OC[C@@H]2Sc1ncccn1 [Example 46, 1-Cyclohexyl-3-[(3S,3aR,6S,6aS)-6-(pyrimidin-2-ylsulfanyl)-hexahydro-furo[3,2-b]furan-3-yl]-urea]
12 | 167 nM | O=C(NC1CCCCC1)N[C@H]1CO[C@H]2[C@@H]1OC[C@@H]2Nc1nccs1 [Example 13, 1-Cyclohexyl-3-[(3S,3aR,6S,6aR)-6-(thiazol-2-ylamino)-hexahydro-furo[3,2-b]furan-3-yl]-urea]
13 | 1 nM | Cc1ncccc1O[C@H]1CO[C@H]2[C@@H]1OC[C@@H]2NC(=O)NC1CCCC(C(F)(F)F)C1 (stereo partly drawn) [Example 90, 1-[(3S,3aR,6S,6aS)-6-(2-methyl-pyridin-3-yloxy)-hexahydro-furo[3,2-b]furan-3-yl]-3-(3-trifluoromethyl-cyclohexyl)-urea]
14 | 987 nM | CCOC1COCCC1NC(=O)N[C@H]1CO[C@H]2[C@@H]1OC[C@@H]2Oc1cccnc1C (stereo partly drawn) [Example 79, 1-(3-ethoxy-tetrahydro-pyran-4-yl)-3-[(3S,3aR,6S,6aS)-6-(2-methyl-pyridin-3-yloxy)-hexahydro-furo[3,2-b]furan-3-yl]-urea; hydrochloride]
15 | 16 nM | O=C(NC1CCc2ccccc21)NC1COC2C(Oc3ccc(F)cc3)COC12 [Example 150, 1-[(3S,3aR,6S,6aS)-6-(4-Fluoro-phenoxy)-hexahydro-furo[3,2-b]furan-3-yl]-3-(S)-indan-1-yl-urea]
16 | 35 nM | Cc1cccc(NC(=O)N[C@H]2CO[C@@H]3[C@@H]2OC[C@H]3C#Cc2ccccc2)c1 [Example 289, 1-[(3S,3aR,6R)-6-((S)-Phenylethynyl)-hexahydro-furo[3,2-b]furan-3-yl]-3-m-tolyl-urea]
17 | 82 nM | O=C(Nc1ccc(OCc2ccccc2)cc1)NC1COC2C(C#Cc3ccccc3)COC12 [Example 287, 1-(4-Benzyloxy-phenyl)-3-[(3S,3aR,6R)-6-((S)-phenylethynyl)-hexahydro-furo[3,2-b]furan-3-yl]-urea]
18 | 3 nM | O=C(NC1CCCCC1)N[C@H]1CO[C@H]2[C@@H]1OC[C@@H]2Oc1ccc2c(c1)C(=O)CC2 [Example 118, 1-Cyclohexyl-3-[(3S,3aR,6S,6aS)-6-(3-oxo-indan-5-yloxy)-hexahydro-furo[3,2-b]furan-3-yl]-urea]
19 | 227 nM | O=C(Nc1ccccc1)N[C@H]1CO[C@@H]2[C@@H]1OC[C@H]2C#Cc1ccccc1 [Example 286, 1-Phenyl-3-[(3S,3aR,6R)-6-((S)-phenylethynyl)-hexa-hydro-furo[3,2-b]furan-3-yl]-urea]
20 | 10 nM | O=C(NC1CCCCC1)N[C@H]1CO[C@H]2[C@@H]1OC[C@@H]2Oc1cccc(CNC2CC2)c1 [Example 128, 1-Cyclohexyl-3-[(3S,3aR,6S,6aS)-6-(3-cyclopropylaminomethyl-phenoxy)-hexahydro-furo[3,2-b]furan-3-yl]-urea; trifluoroacetate]
21 | 71 nM | O=C(Nc1ccc2c(c1)OCO2)N[C@H]1CO[C@H]2[C@@H]1OC[C@@H]2C#Cc1ccccc1 [Example 293, 1-Benzo[1,3]dioxol-5-yl-3-((3S,3aR,6S,6aR)-6-phenylethynyl-hexahydro-furo[3,2-b]furan-3-yl)-urea]
22 | 924 nM | Cc1ncccc1O[C@H]1CO[C@H]2[C@@H]1OC[C@@H]2NC(=O)N1CCCC(F)(F)C1 [Example 278, 3,3-Difluoro-piperidine-1-carboxylic acid [(3S,3aR,6S,6aS)-6-(2-methyl-pyridin-3-yloxy)-hexahydro-furo[3,2-b]furan-3-yl]-amide]
23 | 241 nM | O=C(Nc1ccccc1)NC1COC2C(C#Cc3ccsc3)COC12 [Example 303, 1-Phenyl-3-((3S,3aR,6S,-6aR)-6-thiophen-3-ylethynyl-hexahydro-furo[3,2-b]furan-3-yl)-urea]
24 | 112 nM | O=C(Nc1ccc2c(c1)OCCO2)NC1COC2C(C#Cc3ccccc3)COC12 [Example 295, 1-(2,3-Dihydro-benzo[1,4]-dioxin-6-yl)-3-((3S,3aR,6S,-6aR)-6-phenylethynyl-hexa-hydro-furo[3,2-b]furan-3-yl)-urea]
25 | 108 nM | Cc1cc(C)cc(NC(=O)NC2COC3C(C#N)COC23)c1 (stereo not drawn) [Example 381]
26 | 3 nM | Cc1ncccc1O[C@H]1CO[C@H]2[C@@H]1OC[C@@H]2NC(=O)NC1CCOc2ccccc21 (stereo partly drawn) [Example 207, 1-Chroman-4-yl-3-[(3S,3aR,6S,6aS)-6-(2-methyl-pyridin-3-yloxy)-hexa-hydro-furo[3,2-b]furan-3-yl]-urea]
27 | 28 nM | COc1cc(CNC(=O)N[C@H]2CO[C@H]3[C@@H]2OC[C@@H]3Oc2cccnc2C)ccn1 [Example 203, 1-(2-Methoxy-pyridin-4-ylmethyl)-3-[(3S,3aR,6S,6aS)-6-(2-methyl-pyridin-3-yloxy)-hexahydro-furo[3,2-b]furan-3-yl]-urea]
